Reference: PubChem BioAssay (NCI)
“And” between values parts separate entries of the source, which are not always exact repeats. Identical values can stand only once.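 Tested at 5 concentrations; 48 h exposure; 96-well plates; endpoints linearly interpolated, else capped at highest concentration. GI50 = concentration required for 50% inhibition of growth. At the TGI there is no net growth.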

Experiments:
Test in all cases: growth of human tumour cells (NCI), 48 h
HOP-92 NSCLC = tested on: HOP-92 NSCLC
M14 melanoma = tested on: M14 melanoma
MDA-MB-231 breast = tested on: MDA-MB-231 breast
SK-MEL-28 melanoma = tested on: SK-MEL-28 melanoma
HL-60(TB) leukemia = tested on: HL-60(TB) leukemia
KM12 colon = tested on: KM12 colon
HS 578T breast = tested on: HS 578T breast
SW-620 colon = tested on: SW-620 colon

Row | SMILES | GI50 (HOP-92 NSCLC) | TGI (HOP-92 NSCLC) | GI50 (M14 melanoma) | TGI (M14 melanoma) [µM] | GI50 (MDA-MB-231 breast) | TGI (MDA-MB-231 breast) [µM] | GI50 (SK-MEL-28 melanoma) | TGI (SK-MEL-28 melanoma) [µM] | GI50 (HL-60(TB) leukemia) | TGI (HL-60(TB) leukemia) [µM] | GI50 (KM12 colon) | TGI (KM12 colon) [µM] | GI50 (HS 578T breast) | TGI (HS 578T breast) [µM] | GI50 (SW-620 colon) | TGI (SW-620 colon) [µM]
1 | O=c1/c(=C\c2ccc(Br)cc2)sc2n1C(c1ccc(Br)cc1)C1=C(N=2)c2ccc3ccccc3c2OCC1 (centres undefined) | > 100 µM | > 100 µM | > 100 µM | > 100 | > 100 µM | > 100 | > 100 µM | > 100 | > 100 µM | > 100 | > 100 µM | > 100 | > 100 µM | > 100 | > 100 µM | > 100
2 | CCOc1ccc2c(c1)C(=O)c1c-2n(CCCN=[N+]=[N-])c(=O)c2cc([N+](=O)[O-])ccc12 | 7.95 µM | 46.7 µM | 3.63 µM | > 100 | 45 µM | > 100 | 51.7 µM | > 100 | 28.5 µM | > 100 | 23.9 µM | > 100 | 45.9 µM | > 100 | 3.42 µM | > 100
3 | O=C(NN1C(=O)CSC1c1c(Cl)cccc1Cl)C(O)c1ccccc1 (centres undefined) | 20.9 µM | 98.9 µM | 35.7 µM | > 100 | 19.2 µM | > 100 | 63.7 µM | > 100 | – | – | 34.2 µM | > 100 | > 100 µM | > 100 | 71.8 µM | > 100
4 | O=C1c2ccc3c4c(ccc(c24)C(=O)N1CCNCc1ccccc1)C(=O)N(CCNCc1ccccc1)C3=O | 7.66 µM | 33.2 µM | 1.85 µM | 3.27 | 2.31 µM | 6.61 | 2.59 µM | 7.13 | 2.09 µM | 4.91 | 1.69 µM | 3.31 | 1.83 µM | 5.27 | 0.306 µM | 1.37
5 | NC1(C(=O)N[C@@H](CCO)c2ccc(Cl)cc2)CCN(c2ncnc3[nH]ccc23)CC1 | 0.167 µM and 0.144 µM | 1.54 µM and 1.53 µM | > 2.68 µM and 9.15 µM | > 81.4 | > 3.44 µM and 41 µM | > 100 | 1.69 µM and 7.47 µM | > 100 | > 4.63 µM and 24.2 µM | > 67.8 | 0.927 µM and 2.78 µM | > 77.2 | 0.177 µM and 0.421 µM | – | > 3.5 µM and 24.8 µM | > 100
6 | COC(=O)[C@]12CC[C@@H](C)[C@H](C)[C@@H]1C1=CC[C@@H]3[C@@](C)(CC#N)C4=C(C[C@@]3(C)[C@]1(C)CC2)OC[C@]4(C)C=O | 4.53 µM | 34.7 µM | 3.46 µM | 19.9 | 3.34 µM | 18.5 | 4.11 µM | 21.3 | 3.03 µM | 6.77 | 6.46 µM | 62.9 | 6 µM | 52.3 | 4.16 µM | 30.6
7 | CN(C)C1CN(C(=O)c2cc(-c3ccc4ncnc(N5CCc6cc(F)c(Cl)cc65)c4c3)cnc2N)C1 | 0.331 µM | 2.17 µM | 0.886 µM | > 100 | 0.931 µM | > 100 | 0.869 µM | > 100 | 0.151 µM | 1.49 | 1.13 µM | > 100 | 0.241 µM | 1.31 | 1.48 µM | > 100
8 | O=C(CCN1CCCN(c2cnc3ccccc3n2)CC1)c1csc2ccccc12 | 15.8 µM | 34 µM | 19.8 µM | 39.3 | 21.2 µM | 37 | 20.6 µM | 37.1 | 27.2 µM | 59.7 | 16 µM | 29.4 | 20 µM | 51.5 | 17.4 µM | 33.3
9 | Nc1c(C(=O)Nc2cccc(C(F)(F)F)c2)sc2nc3c(cc12)CCCCCC3 | 1.7 µM | 4.86 µM | 3.4 µM | 18 | 3.09 µM | 10.6 | 3.36 µM | 15.9 | 11.3 µM | > 100 | 4.08 µM | 23.5 | 3.25 µM | 9.92 | 3.75 µM | 21.2
10 | Fc1ccc(Nc2nc3nonc3nc2Nc2ccc(I)cc2)cc1 | 0.04 µM | 0.326 µM | 0.289 µM | 2.86 | 0.31 µM | 1.72 | 0.34 µM | 4.63 | – | – | 0.332 µM | 11.4 | 0.617 µM | 13.6 | 0.387 µM | 15.6
11 | CCN(CC)CC(O)c1cc(-c2ccc(Cl)cc2)nc2c(C)c(Cl)ccc12 (centres undefined) | – | – | 1.91 µM | 3.48 | 1.47 µM | 3.03 | 1.78 µM | 3.17 | 2.1 µM | 4.57 | 1.72 µM | 3.14 | 1.87 µM | 4.33 | – | –
12 | O=C(/C=C/C=C/c1ccc2c(c1)OCO2)N/N=C\c1ccc(O)cc1O | 1.98 µM | 13.5 µM | 1.67 µM | 11.5 | 3.49 µM | 19.3 | 2.97 µM | 19.6 | 3.58 µM | 24.1 | 2.92 µM | 20.6 | 2.29 µM | 8.15 | 2.83 µM | 19.9
13 | Cc1c(C(=O)c2ccccc2)[n+](=O)c2cc(F)c(F)cc2n1[O-] | 3.72 µM | 14.7 µM | 1.81 µM | 3.36 | 1.46 µM | 2.83 | – | – | – | – | 11.4 µM | 25 | 2.08 µM | 4.68 | 1.43 µM | 3.14
14 | COc1cc(C(=O)NN=C2c3ccccc3-c3ccccc32)cc(OC)c1OC | – | – | 2.58 µM | 92.4 | 2.93 µM | 20 | 6.26 µM | > 100 | 2.21 µM | 7.12 | 2.15 µM | > 100 | 3.5 µM | 26.3 | 2.53 µM | > 100
15 | COCCn1c2c([n+](Cc3cnccn3)c1C)C(=O)c1ccccc1C2=O | 0.0209 µM | 0.0549 µM | < 0.0126 µM | 0.0505 | < 0.01 µM | 0.013 | 0.0164 µM | 0.0419 | < 0.01 µM | < 0.01 | 0.0376 µM | 0.557 | 0.302 µM | 10.7 | < 0.01 µM | 0.0176
16 | COc1ccc2nc3ccccc3c(NCCN(CCCl)CCCl)c2c1 | – | 2.43 µM | – | 2.28 | – | – | – | 5.28 | – | 1.1 | – | 4.37 | – | – | – | 2.51
17 | O=C(N/N=C/c1ccncc1)c1ccc(F)cc1 | > 40 µM | > 40 µM | > 40 µM | > 40 | > 40 µM | > 40 | > 40 µM | > 40 | > 40 µM | > 40 | > 40 µM | > 40 | > 40 µM | > 40 | > 40 µM | > 40
18 | CCCCCCCCCCCCCCCCCC[S+](C)CC (centres undefined) | 1.38 µM | 4.5 µM | 1.33 µM | 2.75 | 1.67 µM | 3.83 | 1.67 µM | 3.71 | 1.17 µM | 3.8 | 1.14 µM | 2.45 | – | – | 1.46 µM | 2.89
19 | COc1ccc(/C=C/C(=O)/C=C(O)/C=C/c2ccc(OC)c(OC)c2)cc1OC | 14.1 µM | 98.4 µM | 5.88 µM | 27.7 | 6.19 µM | > 100 | 18.4 µM | 44 | – | – | 2.84 µM | > 100 | 3.68 µM | > 100 | 1.85 µM | > 100
20 | CN(C)CCCCNc1ccc(NCCCCN(C)C)c2c1C(=O)c1c(O)ccc(O)c1C2=O | – | – | 1.81 µM | 3.2 | 1.47 µM | 2.78 | 17.8 µM | 31.7 | 1.73 µM | 4.12 | 1.51 µM | 2.84 | – | – | 1.51 µM | 2.83
21 | O=C1OCC2=C1C(c1cccc(Cl)c1)c1cc3c(cc1N2CCO)CCC3 (centres undefined) | – | – | 0.0366 µM | 4.46 | 0.217 µM | 2.21 | 0.0574 µM | 20.2 | 0.0318 µM | 0.353 | 0.0402 µM | 4.05 | 0.0453 µM | 22.2 | 0.0369 µM | 16.4
22 | CC/C(=C(/c1ccc(OCCN(C)C)cc1)c1ccc(OC(=O)CCCCCCCCC(=O)c2c(C)[nH]c(/C=C3\N=C(c4ccc[nH]4)C=C3OC)c2C)cc1)c1ccccc1 | – | – | 2.15 µM | 4.48 | 3.4 µM | 18.1 | 43.9 µM | > 100 | 12.3 µM | > 100 | 5.25 µM | > 100 | 4.74 µM | 85 | 3.72 µM | 14
23 | Fc1ccc(N=C2C=CC(=Nc3ccc(F)cc3)c3ccccc32)cc1 | – | > 100 µM | – | > 100 | – | – | – | > 100 | – | > 100 | – | – | – | – | – | > 100
24 | COC(=O)Nc1nc2ccc(C(=O)c3ccc(F)cc3)cc2[nH]1 | 4.81 µM | 50.3 µM | 0.173 µM | > 100 | 0.563 µM | 13.6 | 0.556 µM | > 100 | 0.107 µM | 0.608 | – | – | 0.146 µM | 0.502 | 0.0922 µM | > 100
